From ChEMBL document CHEMBL2021773, “Isolation, structure elucidation, and antibacterial activity of methiosetin, a tetramic acid from a tropical sooty mold (Capnodium sp.)” (2012)
Converted amounts (≈) assume the structure as drawn. The source made the active and inactive calls. No cut-off for these calls is given here.

How the values were obtained:
Staphylococcus aureus [1] = test: Antibacterial activity against Staphylococcus aureus EP167 by two fold serial broth dilution method; type: functional
Haemophilus influenzae = test: Antibacterial activity against Haemophilus influenzae by two fold serial broth dilution method; type: functional
Staphylococcus aureus [2] = test: Potency ratio, ratio of methiosetin MIC to compound MIC for Staphylococcus aureus EP167 by two fold serial broth dilution method; type: functional
Staphylococcus aureus [3] = test: Antibacterial activity against Staphylococcus aureus Smith at 64 ug/mL by two fold serial broth dilution method; type: functional, organism-based
Enterococcus faecalis = test: Antibacterial activity against Enterococcus faecalis at 64 ug/mL by two fold serial broth dilution method; type: functional, organism-based
Streptococcus pneumoniae = test: Antibacterial activity against Streptococcus pneumoniae at 64 ug/mL by two fold serial broth dilution method; type: functional, organism-based
Escherichia coli = test: Antibacterial activity against Escherichia coli at 64 ug/mL by two fold serial broth dilution method; type: functional, organism-based

SMILES | MIC (Staphylococcus aureus [1]) [µg/mL] | MIC (Haemophilus influenzae) [µg/mL] | Ratio (Staphylococcus aureus [2]) | inhibition (Staphylococcus aureus [3]) | inhibition (Enterococcus faecalis) | inhibition (Streptococcus pneumoniae) | inhibition (Escherichia coli)
O=C1C=C[C@H](O)[C@@H]2[C@@H]1C[C@@]13SS[C@]4(C[C@@H]5C(=O)C=C[C@H](O)[C@H]5N4C1=O)C(=O)N23 [EPICORAZINE A] | 32 (≈ 76.1 µM) | 0.5 (≈ 1.19 µM) | 8 |  |  |  | 
CC(O)C1C(O)=C(C(=O)[C@H]2[C@@H]3CCCC[C@H]3C=C[C@H]2C)C(=O)N1C (some centres undefined) [METHIOSETIN] | 256 (≈ 768 µM) | 32 (≈ 96 µM) |  | inactive | inactive | inactive | inactive
